{
  "source": "patent US11939307B2",
  "about": "“Phenylmethyl-piperazine derivatives and antiviral uses thereof” (INSTITUTE OF MEDICINAL BIOTECHNOLOGY, CHINESE ACADEMY OF …, priority 2019, dated 2024)",
  "data": [
    {"test_system": "HCV", "assay": "Assay of anti-HCV activity in HCV-infected Huh7.5 cells (intracellular HCV RNA by one-step quantitative RT-PCR)", "assay_type": "cell-based", "conditions": "Hepatitis C virus; compound at 1 μM; Huh7.5 cells infected with HCV; 96 hrs; intracellular HCV RNA vs viral control; read-out: inhibitory activities (inhibitory levels of the compounds against HCV replication)", "summary_of_the_method": "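Huh7.5 cells were infected with HCV particles while compounds were added at 1 μM, then incubated 96 h at 37 °C, 5% CO2. Intracellular HCV RNA was quantified by one-step qRT-PCR, and inhibition was calculated relative to the viral control.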", "units": {"inhibition at 1 µM": "%"}, "values": [
      {"smiles": "CN1CCCN(c2ccc(C(F)(F)F)c(CN3CCN(C(c4ccc(Oc5ccccc5)cc4)c4ccccn4)CC3)c2)CC1", "note": "(stereo not shown) [Compound 100, 1-methyl-4-[3-({4-[(4-phenoxyphenyl)(pyridin-2-yl)methyl]piperazin-1-yl}methyl)-4-(trifluoromethyl)phenyl]-1,4-diazepane]", "inhibition at 1 µM": "50 to 75"},
      {"smiles": "CCN1CCC(N(C)c2ccc(C(F)(F)F)c(CN3CCN(C(c4ccc(Sc5ccccc5)cc4)c4ccc(Sc5ccccc5)cc4)CC3)c2)C1", "note": "(stereo not shown) [Compound 101, N-{3-([4-{bis[4-(phenylthio)phenyl]methyl}piperazin-1-yl]methyl)-4-(trifluoromethyl)phenyl}-1-ethyl-N-methylpyrrolidin-3-amine]", "inhibition at 1 µM": "> 75"},
      {"smiles": "CSc1ccc(C(c2ccc(SC)cc2)N2CCN(Cc3cc(N(C)CCN(C)C)ccc3C#N)CC2)cc1", "note": "[Compound 102, 2-({4-(bis(4-(methylthio)phenyl]methyl}piperazin-1-yl)methyl)-4-{[2-(dimethylamino)ethyl](methyl)amino}benzonitrile]", "inhibition at 1 µM": "> 75"},
      {"smiles": "CN(CCN1CCCC1)c1ccc(C(F)(F)F)c(CN2CCN(C(c3ccc(C(F)(F)F)cc3)c3ccc(C(F)(F)F)cc3)CC2)c1", "note": "[Compound 103, 3-([4-{bis[4-(trifluoromethyl)phenyl]methyl}piperazin-1-yl]methyl)-N-methyl-N-[2-(pyrrolidin-1-yl)ethyl]-4-(trifluoromethyl)aniline]", "inhibition at 1 µM": "> 75"},
      {"smiles": "CN(C)CCN(C)c1ccc(C#N)c(CN2CCN(C(c3ccc(C#N)cc3)C3CCCC3)CC2)c1", "note": "(stereo not shown) [Compound 104, 2-({4-[(4-cyanophenyl)(cyclopentyl)methyl]piperazin-1-yl}methyl)-4-{[2-(dimethylamino)ethyl](methyl)amino}benzonitrile]", "inhibition at 1 µM": "> 75"},
      {"smiles": "CC(c1ccc(C#N)cc1)N1CCN(Cc2cc(N(C)CCN(C)C)ccc2C(F)(F)F)CC1", "note": "(stereo not shown) [Compound 105, 4-{1-(4-[5-{[2-(dimethylamino)ethyl](methyl)amino}-2-(trifluoromethyl)benzyl]piperazin-1-yl)ethyl}benzonitrile]", "inhibition at 1 µM": "> 75"},
      {"smiles": "N#Cc1ccc(NCCCn2ccnc2)cc1CN1CCN(C(c2ccc(Cl)cc2)c2ccc(Cl)cc2)CC1", "note": "[Compound 106, 4-([3-(1H-imidazol-1-yl)propyl]amino)-2-({4-[bis(4-chlorophenyl)methyl]piperazin-1-yl}methyl)benzonitrile]", "inhibition at 1 µM": "> 75"},
      {"smiles": "CN(C)CCN(C)c1ccc(C(F)(F)F)c(CN2CCN(c3ccc(Cl)c(Cl)c3)CC2)c1", "note": "[Compound 107, N^1-(3-((4-(3,4-dichlorophenyl)piperazin-1-yl)methyl)-4-(trifluoromethyl)phenyl)-N^1,N^2,N^2-trimethylethan-1,2-diamine]", "inhibition at 1 µM": "> 75"},
      {"smiles": "Cc1cc(N2CCN(Cc3cc(N(C)CCN(C)C)ccc3C(F)(F)F)CC2)ccc1Cl", "note": "[Compound 108, N^1-(3-((4-(4-chloro-3-methylphenyl)piperazin-1-yl)methyl)-4-(trifluoromethyl)phenyl)-N^1,N^2,N^2-trimethylethan-1,2-diamine]", "inhibition at 1 µM": "> 75"},
      {"smiles": "CN1CCCN(c2ccc(C(F)(F)F)c(CN3CCN(c4ccc(Cl)c(Cl)c4)CC3)c2)CC1", "note": "[Compound 109, 1-(3-((4-(3,4-dichlorophenyl)piperazin-1-yl)methyl)-4-(trifluoromethyl)phenyl)-4-methyl-1,4-diazepane]", "inhibition at 1 µM": "> 75"}
    ]}
  ]
}
